{"source": "paper PMC11220827", "about": "(Frontiers in Pharmacology, 2024)", "key": {"[1]": {"biological_target": "Transthyretin (TTR) (Homo sapiens, UniProt P02766)", "experimental": "DMSO (1% compound stock in incubation mixture). The incubation mixture was transferred to 96 -\nwas measured on a Berthold luminometer.\n(§1) Serial dilutions of the compounds were incubated in Tris -buffer (pH 8.0) overnight at 4°C in the\n(§2) incubation mixture). After incubation, TTR-bound and free T4 were separated on a Bio-Gel P-6DG\n(§3) column. The eluate was added to assay medium after which TRβ CALUX cells were exposed for 24 h\n(see CALUX bioassays). For this TRβ CALUX exposure, serum-free assay medium was used."}, "[2]": {"system": "mice", "details": "in the diet; ref SCCS 2022; cited from earlier work"}, "[3]": {"system": "mice", "details": "oral administration; ref SCCS 2022; cited from earlier work"}, "[4]": {"biological_target": "T1, human thyroid peroxidase (hTPO) (Homo sapiens, UniProt P07202)", "T1 sequence (P07202 19-933)": "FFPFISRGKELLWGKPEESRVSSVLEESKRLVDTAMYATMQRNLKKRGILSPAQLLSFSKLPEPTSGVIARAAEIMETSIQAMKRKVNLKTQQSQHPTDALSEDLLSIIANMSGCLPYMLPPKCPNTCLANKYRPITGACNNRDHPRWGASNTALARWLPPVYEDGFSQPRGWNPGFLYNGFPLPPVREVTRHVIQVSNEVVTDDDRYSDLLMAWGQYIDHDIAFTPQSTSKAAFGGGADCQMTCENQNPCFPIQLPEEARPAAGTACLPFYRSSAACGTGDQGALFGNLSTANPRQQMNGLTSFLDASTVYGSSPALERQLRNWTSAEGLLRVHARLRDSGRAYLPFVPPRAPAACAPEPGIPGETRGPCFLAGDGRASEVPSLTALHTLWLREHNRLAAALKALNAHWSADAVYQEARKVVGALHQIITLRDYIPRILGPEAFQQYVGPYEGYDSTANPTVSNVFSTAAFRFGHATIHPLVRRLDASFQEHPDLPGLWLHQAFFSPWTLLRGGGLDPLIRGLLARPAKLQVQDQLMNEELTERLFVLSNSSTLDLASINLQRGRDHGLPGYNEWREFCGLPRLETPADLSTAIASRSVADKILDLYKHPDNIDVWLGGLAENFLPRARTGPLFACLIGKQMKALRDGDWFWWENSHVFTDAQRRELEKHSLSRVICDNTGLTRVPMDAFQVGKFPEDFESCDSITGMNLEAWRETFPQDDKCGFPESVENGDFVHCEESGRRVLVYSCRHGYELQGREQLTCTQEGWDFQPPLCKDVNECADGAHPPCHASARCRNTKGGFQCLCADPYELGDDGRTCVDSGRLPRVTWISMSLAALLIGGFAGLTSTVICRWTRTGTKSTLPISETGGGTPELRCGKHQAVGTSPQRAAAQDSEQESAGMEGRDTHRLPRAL", "experimental": "hTPO was derived from Nthy-ori 3-1 cells. Cell lysate containing hTPO in Glycine-NaOH buffer (pH\n9.0) was incubated for 30 minutes at 37°C in the presence of serial dilutions of the compounds in\n(§4) DMSO (1% compound stock in incubation mixture).\nwas measured on a Berthold luminometer.\n(§5) Preincubation with rat liver S9 fraction\n(§6) To assess the effect of metabolism on the activity of the test\ncompound for these assays, preincubations with rat liver S9 were performed."}, "[5]": {"biological_target": "T2, TRβ (Homo sapiens, UniProt P10828)", "T2 sequence (P10828 1-461)": "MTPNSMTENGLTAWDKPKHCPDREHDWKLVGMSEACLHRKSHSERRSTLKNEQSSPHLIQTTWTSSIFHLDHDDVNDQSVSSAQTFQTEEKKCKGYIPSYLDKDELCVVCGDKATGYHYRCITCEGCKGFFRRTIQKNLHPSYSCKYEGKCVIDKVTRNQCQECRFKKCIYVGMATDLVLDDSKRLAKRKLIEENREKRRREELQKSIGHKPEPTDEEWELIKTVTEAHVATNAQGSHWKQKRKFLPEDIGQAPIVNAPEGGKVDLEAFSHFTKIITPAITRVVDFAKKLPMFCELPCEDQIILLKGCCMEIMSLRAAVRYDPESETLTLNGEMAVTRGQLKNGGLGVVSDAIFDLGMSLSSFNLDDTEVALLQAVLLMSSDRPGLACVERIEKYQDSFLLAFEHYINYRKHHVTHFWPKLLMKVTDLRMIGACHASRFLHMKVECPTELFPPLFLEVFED", "experimental": "(§7) using the U2-OS based CALUX cytotox bioassay. The cytotoxicity of each test chemical was assessed using the U2-OS based cytotoxicity CALUX bioassay. Concentrations causing >20% reduction of luminescence were considered cytotoxic.\n(§8) cytotoxicity (relative induction in the cytotoxicity CALUX bioassay > 80%) were used for final\nevaluation of analysis results.\n(§9) induction in the cytotox CALUX bioassay > 80%) were used for final evaluation of analysis results.\n(§10) All analysis results were expressed in molar (M) final in well.\n(§11) For determination of the (anti-)ERα, (anti-)AR and (anti-)TRβ CALUX activities, CALUX cells were\n(§12) seeded in assay medium. Following exposure of the CALUX cells to serial dilutions of the\n(§13) compounds in triplicate for 24 h, the induction of luciferase production was quantified by measuring\n(§14) luminescence following addition of the substrate luciferin. For antagonist assays, a fixed\n(§15) concentration of assay agonist was present in each well, to generate a basal signal. On each plate, a\n(§16) complete calibration curve for each respective bioassay was also analysed using the relevant reference\n(§17) compounds. For the analyses in the presence of rat liver S9, 0.03% (v/v) of PB/BNF induced rat liver\n(§18) S9 mix (including NADPH and an NADPH-regenerating system) was added to the cells directly after\n(§19) addition of the compounds, which remained there for the duration of the exposure period (24 h) (van\n(§20) Relative light units (RLUs) of the CALUX assays were analysed as follows. For agonist assays,\n(§21) background values (exposure to DMSO only) were subtracted, and the maximum activity of the\n(§22) assay’s reference compound was set to 100%. For antagonist assays, the basal signal (exposure to fixed concentration of agonist only) was set to 100%. Activity of the samples was scaled accordingly,\n(§23) resulting in expression of the data as “percentage of maximum reference response”. Graphs were\n(§24) generated using the statistical software package GraphPad Prism V5.03. Using these graphs, lowest\n(§25) effect concentrations (LOECs) and PC50 concentrations were determined; LOEC is defined as the […]"}, "[6]": {"system": "dogs", "details": "male and female dogs; ref McClain et al. 2005; cited from earlier work"}, "[7]": {"biological_target": "T2, TRβ", "experiment": "TRβ CALUX assay (thyroid)", "experimental": "as §7, §8\nevaluation of analysis results.\nas §9, §10, §11, §12, §13, §14, §15, §16, §17, §18, §19, §20, §21, §22, §23, §24\n(§26) effect concentrations (LOECs) and PC50 concentrations were determined; LOEC is defined as the\n(§27) maximum reference compound activity for agonist assays, and 20% of the maximum reference\n(§28) compound activity for antagonist assays. The PC50 is defined as the concentration where the activity\n(§29) of the sample equals 50% of the maximum activity of the assay’s reference compound."}, "[8]": {"system": "HepG2 and MCF-7 cells", "details": "24 h"}, "[9]": {"system": "Sprague-Dawley rats", "details": "cited from earlier work"}, "[10]": {"system": "H295R cells", "experimental": "as §4\nwas measured on a Berthold luminometer.\nas §1, §2, §3\nFor this TRβ CALUX exposure, serum-free assay medium was used.\nwells plates in assay medium, and exposed for 48h to a serial dilution of the compound in triplicate\nexposure, the assay medium was analysed on the ERα and AR CALUX bioassays as described\nChanges in hormone levels compared to a vehicle control exposure\nas §5, §6\ncompound for these assays, preincubations with rat liver S9 were performed. Compounds (10 μl\nDMSO stock solution) were incubated for 0 h (control) or 3 h (test condition) in a total volume of 1\nml TRIS buffer in the presence of 1% (v/v) PB/BNF induced rat liver S9 mix (including NADPH and\nan NADPH-regenerating system). After incubation, the reaction was stopped by the addition of ice\ncold acetone, and samples were frozen to stimulate protein precipitation. After thawing, the\nprecipitated protein fraction was subsequently removed by centrifugation. The supernatant, cont aining\nthe metabolites and any remaining non-metabolised parent compound, was concentrated under a\ngentle nitrogen flow. After evaporating to dryness, the sample was taken up in 50 μl DMSO followed\nby the addition of 50 μl TRIS buffer. This extract was used for the exposure of the hTPO inhibition,\nas §20, §21, §22, §23, §24, §26, §27, §28, §29\n(§30) the test compound was divided by the amount of estrogens and androgens produced by the solvent\n(§31) control-exposed cells. A sample was considered ‘active’ if it decreased the hormone production 0.8-"}, "[11]": {"details": "ref SCCS 2022; cited from earlier work"}, "[12]": {"details": "in vivo; cited from earlier work"}, "[13]": {"biological_target": "T3, ERα receptor (Homo sapiens, UniProt P03372)", "T3 sequence (P03372 whole entry)": "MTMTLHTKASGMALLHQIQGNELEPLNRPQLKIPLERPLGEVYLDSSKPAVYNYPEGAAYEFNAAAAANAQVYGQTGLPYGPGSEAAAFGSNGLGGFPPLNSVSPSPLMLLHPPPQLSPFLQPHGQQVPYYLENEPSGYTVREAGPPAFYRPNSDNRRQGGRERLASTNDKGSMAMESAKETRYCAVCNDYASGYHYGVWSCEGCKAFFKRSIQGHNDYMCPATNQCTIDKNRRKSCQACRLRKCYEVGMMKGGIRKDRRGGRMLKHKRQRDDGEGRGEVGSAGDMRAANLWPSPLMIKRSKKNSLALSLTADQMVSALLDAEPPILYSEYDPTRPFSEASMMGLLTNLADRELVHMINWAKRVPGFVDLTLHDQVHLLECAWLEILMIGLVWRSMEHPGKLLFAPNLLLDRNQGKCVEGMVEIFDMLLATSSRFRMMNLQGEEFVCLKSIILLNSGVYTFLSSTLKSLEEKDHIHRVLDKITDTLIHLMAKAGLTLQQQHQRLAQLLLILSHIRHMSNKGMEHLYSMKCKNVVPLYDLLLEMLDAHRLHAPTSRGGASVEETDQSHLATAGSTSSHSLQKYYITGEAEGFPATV"}, "[14]": {"biological_target": "T3, ERα receptor", "remark": "listed apart in the source", "experimental": "as §7, §8\nevaluation of analysis results.\nas §9, §10, §11, §12, §13, §14, §15, §16\ncompounds. For the analyses in the presence of rat liver S9, 0.03% (v/v) of PB/BNF induced rat liver […]\nRelative light units (RLUs) of the CALUX assays were analysed as follows. […]\nas §25"}, "[15]": {"biological_target": "Estrogen ERα (h) (Homo sapiens, UniProt P03372)", "sequence (P03372 whole entry)": "as above", "details": "pharmacology profiling; LOEC = 10% of maximum reference compound activity"}, "[16]": {"biological_target": "EGFR Human RTK Kinase (Homo sapiens, UniProt P00533)", "sequence (P00533 25-1210)": "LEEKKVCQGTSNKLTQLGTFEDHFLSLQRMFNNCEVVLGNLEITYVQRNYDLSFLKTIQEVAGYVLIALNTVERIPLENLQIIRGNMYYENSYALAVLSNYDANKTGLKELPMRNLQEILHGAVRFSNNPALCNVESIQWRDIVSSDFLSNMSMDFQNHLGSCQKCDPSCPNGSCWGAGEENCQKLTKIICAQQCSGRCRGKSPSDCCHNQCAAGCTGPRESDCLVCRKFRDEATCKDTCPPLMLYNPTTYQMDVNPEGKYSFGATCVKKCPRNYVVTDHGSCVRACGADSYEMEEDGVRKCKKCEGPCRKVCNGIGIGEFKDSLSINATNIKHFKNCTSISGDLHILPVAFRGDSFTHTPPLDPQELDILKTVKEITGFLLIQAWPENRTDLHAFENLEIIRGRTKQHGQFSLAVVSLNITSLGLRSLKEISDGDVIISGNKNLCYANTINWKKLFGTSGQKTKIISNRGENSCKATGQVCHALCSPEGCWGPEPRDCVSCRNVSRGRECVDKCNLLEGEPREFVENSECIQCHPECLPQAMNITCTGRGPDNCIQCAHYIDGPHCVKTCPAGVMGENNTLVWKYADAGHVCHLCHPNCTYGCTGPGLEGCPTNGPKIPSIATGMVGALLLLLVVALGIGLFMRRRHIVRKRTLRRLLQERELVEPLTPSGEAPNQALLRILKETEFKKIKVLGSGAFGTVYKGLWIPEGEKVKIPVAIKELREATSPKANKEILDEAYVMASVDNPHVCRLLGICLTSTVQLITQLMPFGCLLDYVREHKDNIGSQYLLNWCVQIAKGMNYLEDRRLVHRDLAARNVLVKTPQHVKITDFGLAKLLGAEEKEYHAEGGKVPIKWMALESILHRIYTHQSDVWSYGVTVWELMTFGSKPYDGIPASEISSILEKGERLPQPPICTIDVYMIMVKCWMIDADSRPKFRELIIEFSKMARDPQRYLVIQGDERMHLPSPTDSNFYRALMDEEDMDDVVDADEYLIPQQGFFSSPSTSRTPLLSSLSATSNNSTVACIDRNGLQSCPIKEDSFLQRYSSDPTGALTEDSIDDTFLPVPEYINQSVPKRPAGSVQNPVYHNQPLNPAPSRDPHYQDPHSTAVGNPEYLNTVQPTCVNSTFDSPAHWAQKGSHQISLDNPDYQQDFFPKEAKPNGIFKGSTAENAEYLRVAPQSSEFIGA", "experiment": "biochemical", "details": "read-out: EGFR Human RTK Kinase Enzyme activity: % inhibition @10 µM", "experimental": "(§32) Chemicals that are flagged for a target are tested in follow-up dose-response assays to establish potency of the interaction.\nas §20, §21, §22, §23, §24, §26, §27, §28, §29, §30, §31\nPharmacology profiling assays\ntargets. The list of targets included the original panel of 44 targets (including receptors, ion channels, […]"}, "[17]": {"system": "THRα", "parameters": "method as in ToxCast", "details": "ref ToxCast; cited from earlier work"}, "[18]": {"experiment": "Measured plasma concentrations of daidzein from dietary intake", "type": "in vivo, human", "details": "PoD 10 nM / 3.14 µM", "text": "Daidzein is present in soy-derived foods and is consumed in large amounts in Asian countries."}, "[19]": {"biological_target": "5-HT2A (h) (Homo sapiens, UniProt P28223)", "sequence (P28223 whole entry)": "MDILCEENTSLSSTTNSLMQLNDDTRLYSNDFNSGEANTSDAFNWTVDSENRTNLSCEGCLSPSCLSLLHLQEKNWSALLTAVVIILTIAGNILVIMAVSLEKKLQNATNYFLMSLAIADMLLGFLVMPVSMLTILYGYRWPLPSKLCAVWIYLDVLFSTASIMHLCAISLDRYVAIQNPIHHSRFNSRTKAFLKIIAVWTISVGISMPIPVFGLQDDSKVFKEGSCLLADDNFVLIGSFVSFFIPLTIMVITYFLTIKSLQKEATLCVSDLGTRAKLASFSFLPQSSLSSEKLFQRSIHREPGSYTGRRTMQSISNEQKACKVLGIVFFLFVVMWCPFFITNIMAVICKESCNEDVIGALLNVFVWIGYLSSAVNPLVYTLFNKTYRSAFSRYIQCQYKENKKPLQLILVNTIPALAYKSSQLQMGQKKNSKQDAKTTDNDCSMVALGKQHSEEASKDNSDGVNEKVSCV", "experiment": "biochemical", "type": "binding", "details": "read-out: 5-HT2A (h) (agonist RL): % inhibition @10 µM", "experimental": "as §32\nPharmacology profiling assays\ntargets. The list of targets included the original panel of 44 targets (including receptors, ion channels,\ntransporters and enzymes) recommended by 4 major pharmaceutical companies as significant\nreasoned to link to pathological effects. Results showing an inhibition or stimulation higher than 50%\nare considered to represent significant effects (i.e. a “hit”).\nand 50% are indicative of weak to moderate effects and results showing an inhibition (or stimulation)\naround the control level. For several targets, additional concentration effect assays were conducted to\ndetermine the potency (IC50). The concentrations tested (in duplicate) ranged between 30 nM and 100"}, "[20]": {"details": "+S9 (preincubation with rat liver S9)"}}, "note": "Several values for one entry are separate records, joined by “and”; a condition that tells them apart may be missing. Equal entries are not always repeated. Entries after “also recorded” stand apart in the source; their conditions may differ."}
{"smiles": "O=c1c(-c2ccc(O)cc2)coc2cc(O)cc(O)c12", "note": "[Genistein, 5,7-DIHYDROXY-3-(4-HYDROXYPHENYL)-4-BENZOPYRONE]", "values": [{"measurement": "TTR LOEC, Inhibition of binding of T4 to TTR", "setting": "[1]", "value": 0.21, "unit": "µM"}, {"measurement": "TTR binding (thyroid) LOEC, +S9", "setting": "[1]; [20]", "value": "−6.7", "unit": "Log M"}, {"measurement": "LOEC for inhibition of TTR binding", "setting": "[1]; inhibition of binding of T4 to TTR", "value": "2.1 × 10^−7 ± 6.7 × 10^−8"}, {"measurement": "TTR binding (thyroid) LOEC, −S9", "setting": "[1]; −S9", "value": "−6.7", "unit": "Log M"}, {"measurement": "P53-/- Mouse Tumorigenesis Assay result", "setting": "[2]", "value": "negative"}, {"measurement": "In vivo DNA damage/Comet assay result", "setting": "[3]", "value": "Negative in mice after oral administration"}, {"measurement": "LOEC for hTPO inhibition", "setting": "[4]", "value": "19 ± 8.9", "unit": "µM"}, {"measurement": "TPO LOEC, Inhibition", "setting": "[4]", "value": 19, "unit": "µM"}, {"measurement": "hTPO inhibition (thyroid) LOEC, +S9", "setting": "[4]; [20]", "value": ">−4.7", "unit": "Log M"}, {"measurement": "hTPO inhibition (thyroid) LOEC, −S9", "setting": "[4]; −S9", "value": "−4.7", "unit": "Log M"}, {"measurement": "Anti-TRß antithyroid LOEC, +S9", "setting": "[5]; +S9 (rat liver)", "value": ">−5", "unit": "Log M"}, {"measurement": "Anti-TRß antithyroid LOEC, −S9", "setting": "[5]; −S9", "value": ">−5", "unit": "Log M"}, {"measurement": "NOAEL, 4 weeks", "setting": "[6]", "value": "> 500", "unit": "mg/kg/day"}, {"measurement": "NOAEL, 52 weeks", "setting": "[6]", "value": "> 500", "unit": "mg/kg/day"}, {"measurement": "TRß thyroid LOEC, +S9", "setting": "[7]; +S9 (rat liver)", "value": ">−5", "unit": "Log M"}, {"measurement": "TRβ Agonist/antagonist effect", "setting": "[7]; CALUX", "value": "did not activate or antagonize the thyroid receptor-β; also recorded: No effect"}, {"measurement": "TRß thyroid LOEC, −S9", "setting": "[7]; −S9", "value": ">−5", "unit": "Log M"}, {"measurement": "Metabolism by HepG2 or MCF-7 cells", "setting": "[8]", "value": "metabolized by both cell types"}, {"measurement": "NOAEL, female rats", "setting": "[9]; 5 ppm in feed, ref NTP 2008", "value": 0.5, "unit": "mg/kg"}, {"measurement": "NOAEL, male rats (PoD)", "setting": "[9]; 5 ppm in feed, ref NTP 2008", "value": 0.3, "unit": "mg/kg"}, {"measurement": "LOAEL, male rats", "setting": "[9]; ref SCCS 2022", "value": 7, "unit": "mg/kg"}, {"measurement": "Estrogen synthesis, Increase/decrease", "setting": "[10]", "value": "No effect"}, {"measurement": "Steroidogenesis (ERα) 17β-estradiol LOEC, +S9", "setting": "[10]; [20]", "value": ">−6.7", "unit": "Log M"}, {"measurement": "Steroidogenesis (ERα) 17β-estradiol LOEC, −S9", "setting": "[10]; −S9", "value": ">−6", "unit": "Log M"}, {"measurement": "In vitro Comet assay result", "setting": "[11]", "value": "positive, and four were negative"}]}
{"smiles": "O=c1c(-c2ccc(O)cc2)coc2cc(O)ccc12", "note": "[Daidzein, DAIDZEIN]", "values": [{"measurement": "Highest measured plasma concentration", "setting": "[12]", "value": 3.14, "unit": "µM"}, {"measurement": "LOEC, ERα CALUX assay", "setting": "[13]", "value": "110 ± 18", "unit": "nM"}, {"measurement": "ERα receptor LOEC, +S9", "setting": "[13]; +S9 (rat liver)", "value": "−7.0", "unit": "Log M"}, {"measurement": "LOEC, ERα + S9", "setting": "[13]; CALUX ERα, with rat liver S9", "value": "100 ± 0.0 nM and 100 ± 0 nM and 100 nM"}, {"measurement": "LOEC, ERα − S9", "setting": "[13]; CALUX ERα, without S9", "value": 110, "unit": "nM"}, {"measurement": "NOEC (in vitro PoD) = ERα CALUX LOEC divided by 3", "setting": "[13]; estimated from LOEC + S9", "value": 33, "unit": "nM"}, {"measurement": "ERα receptor LOEC, −S9", "setting": "[13]; −S9", "value": "−6.9", "unit": "Log M"}, {"measurement": "Anti-ERα antiestrogen LOEC, +S9", "setting": "[14]; +S9 (rat liver)", "value": ">−5", "unit": "Log M"}, {"measurement": "Anti-ERα antiestrogen LOEC, −S9", "setting": "[14]; −S9", "value": ">−5", "unit": "Log M"}, {"measurement": "ERα LOEC (binding to receptor)", "setting": "[15]", "value": "35 nM and 35.2 nM"}, {"measurement": "inhibition at 10 µM", "setting": "[16]", "value": 17.8, "unit": "%"}, {"measurement": "Thyroid pathway: Receptor binding (THRα), Call", "setting": "[17]", "value": "Neg (Neg = negative result)"}, {"measurement": "BER, highest measured dietary plasma concentration", "setting": "[18]", "value": 0.003}, {"measurement": "inhibition at 10 µM", "setting": "[19]", "value": 38.9, "unit": "%"}]}
